Target: T1, estrogen receptor (Rattus norvegicus, UniProt P06211)
T1 construct: from tissue; host or cells: uterine cytosol of gonadectomized female Sprague-Dawley rats
T1 sequence (P06211 1-600): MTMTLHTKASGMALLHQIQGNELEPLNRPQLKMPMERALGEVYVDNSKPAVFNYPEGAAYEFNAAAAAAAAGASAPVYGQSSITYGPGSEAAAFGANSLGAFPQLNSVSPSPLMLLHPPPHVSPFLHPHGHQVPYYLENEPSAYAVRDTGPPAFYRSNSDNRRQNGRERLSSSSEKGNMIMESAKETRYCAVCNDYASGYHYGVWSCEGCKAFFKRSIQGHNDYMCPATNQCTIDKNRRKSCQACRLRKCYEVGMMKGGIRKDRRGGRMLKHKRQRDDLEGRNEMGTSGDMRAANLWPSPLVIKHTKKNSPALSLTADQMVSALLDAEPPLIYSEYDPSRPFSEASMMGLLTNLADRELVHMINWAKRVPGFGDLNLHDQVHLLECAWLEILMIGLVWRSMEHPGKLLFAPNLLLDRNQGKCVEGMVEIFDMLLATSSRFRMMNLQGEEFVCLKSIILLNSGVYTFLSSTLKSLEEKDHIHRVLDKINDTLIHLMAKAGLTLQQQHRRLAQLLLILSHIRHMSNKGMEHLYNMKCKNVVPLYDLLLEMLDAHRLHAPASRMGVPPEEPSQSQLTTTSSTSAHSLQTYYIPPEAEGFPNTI
Test: Estrogen receptor (ER) assay: inhibition of [3H]E2 binding, uterine cytosol
Experimental: Female Sprague-Dawley rats (Crl: CD(SD)Br) weighing 200-300 g were obtained from Charles-River Inc. (St-Constant, Québec, Canada). The rats were gonadectomized under general anesthesia (Isoflurane) and killed by cervical dislocation 24 hours later. The uteri were rapidly removed, dissected free from adhering tissue and frozen on dry-ice. Uteri were kept at −80° C. until assay. All subsequent steps were performed at 0-4° C. Uteri were homogenized in 10 vol (wt/vol) of buffer A (25 mM Tris-HCI, 1.5 mM EDTA disodium salt, 10 mM α-monothioglycerol, 10% glycerol, and 10 mM sodium molybdate, pH 7.4), using a Polytron PT-10 homogenizer (Brinkman Instruments, Canada) at a setting of 5 for three periods of 10 sec, with intervals of 10 sec for cooling. The homogenate was then centrifuged at 105,000×g for 60 min in a Beckman L5-65 ultracentrifuge (Fullerton, Calif.). The protein concentration of the cytosol fraction was measured according to the method of Bradford (Anal. Biochem. 72: 248-254, 1976), using bovine serum albumin as standard.
Estrogen binding was measured using the dextran-coated charcoal adsorption technique as described previously (Asselin et al., Endocrinology, 101: 666-671, 1977; Asselin and Labrie, J. Steroid Biochem., 9: 1079-1082, 1978). Briefly, [^3H]E2 solubilized in ethanol were diluted into buffer A. Aliquots of uterine cytosol preparation (0.1 ml) were incubated with 5 nM [^3H]E2 (˜200,000 cpm, 0.1 ml) in the presence or absence of the indicated concentrations of unlabeled compounds (0.1 ml, prepared in buffer A containing 10% ethanol) for 3 h at room temperature. Unbound steroids were then separated by incubation for 15 min at 0-4° C. with 0.3 ml 0.5% Norit-A and 0.05% Dextran T-70 in buffer B (1.5 mM EDTA disodium salt, 10 mM monothioglycerol, and 10 mM Tris-HCI, pH 7.4) and centrifuged at 3,000×g for 15 min. Aliquots of the supernatant (0.3 ml) were removed for radioactivity measurement.

SMILES | % Inhibition Estrogen Receptor E^−6 (Table 4′, E^−6) [%] | % Inhibition Estrogen Receptor E^−8 (Table 4′, E^−8) [%] | further results
COCCOc1ccc2c(c1)C(=O)CC1C2CCC2(C)C1CCC21CCC(C)(C)C(=O)O1 (centres unmarked) [EM-1408-CS] | 6 | 0 | 
CC1(C)CCC2(CCC3C4CCc5cc(O)c([N+](=O)[O-])cc5C4CCC32C)OC1=O (centres unmarked) [EM-1125-CS] | 2 | 2 | 
CCOc1ccc2c(c1)CCC1C2CC[C@@]2(C)C1CC[C@@]21CCC(C)(C)C(=O)O1 (stereo partly drawn) [EM-1369, 3-Ethoxy-1,3,5(10)-estratrien-17(R)-spiro-2′-(5′,5′-dimethyl-6′-oxo)-tetrahydropyran] | 0 | 2 | 
COCCOc1ccc2c(c1)CCC1C2CCC2(C)C1CCC21CCC(C)(C)C(=O)O1 [EM-1368-CS, 3-Methoxyethoxy-1,3,5(10)-estratrien-17(R)-spiro-2′-(5′,5′-dimethyl-6′-oxo)-tetrahydropyran] | 0 | 0 | 
COc1ccc(CC(=O)O[C@]2(C(C)=O)CCC3C4C=C(C)C5=CC(=O)C=C[C@]5(C)C4CC[C@@]32C)cc1 (some centres unmarked) [EM-1291] |  |  | % Inhibition Estrogen Receptor (E^−6): 0%; % Inhibition Estrogen Receptor (E^−8): 0%
COCCOc1cc2c(cc1Cl)C1CCC3(C)C(CCC34CCC(C)(C)C(=O)O4)C1CC2 (centres unmarked) [EM-1371-CS] | 1 | 2 | 
CC1CCC2(CCC3C4CCc5ccccc5C4CCC32C)OC1=O (centres unmarked) [EM-1025] | 4 | 1 | 
COc1cc2c(cc1C)C1CCC3(C)C(CCC34CCC(C)(C)C(=O)O4)C1CC2 (centres unmarked) [EM-1412-CS] | 0 | 0 | 
CC(=O)[C@@]1(OC(=O)CCCCF)CCC2C3C=C(C)C4=CC(=O)CC[C@]4(C)C3CC[C@@]21C (some centres unmarked) [EM-1195-CS] |  |  | % Inhibition Estrogen Receptor (E^−6): 0%; % Inhibition Estrogen Receptor (E^−8): 0%
COCCOc1cc2c(cc1C(F)(F)F)[C@H]1CC[C@@]3(C)[C@@H](CC[C@@]34CCC(C)(C)C(=O)O4)[C@@H]1CC2 [EM-1438, 3-(2′-Methoxyethoxy)-2-trifluoromethyl-1,3,5(10)-estratrien-17(R)-spiro-2′-(5′,5′-dimethyl-6′-oxo)tetrahydropyran] | 0 | 4 | 
CC1(C)CC[C@@]2(CC[C@H]3[C@@H]4CCc5c(cc(Br)c(O)c5Br)[C@H]4CC[C@@]32C)OC1=O [EM-1382-CS] | 3 | 0 | 
CC1(C)CC[C@@]2(CCC3C4CCc5cc6oncc6cc5C4CC[C@@]32C)OC1=O (stereo partly drawn) [EM-1407-CS, 1,3,5(10)-estratrien-(2,3-oximino)-17(R)-spiro-2′-(5′,5′-dimethyl-6′-oxo)tetrahydropyran] | 0 | 2 | 
CC1(C)CCC2(CCC3C4CCc5cc(OS(C)(=O)=O)ccc5C4CCC32C)OC1=O (centres unmarked) [EM-1365-CS] | 4 | 2 | 
COC(=O)CCCC(=O)O[C@]1(C(C)=O)CC[C@H]2[C@@H]3C=C(C)C4=CC(=O)CC[C@]4(C)[C@H]3CC[C@@]21C [EM-1007, 6-Methyl-4,6-pregnadien-17α-ol-3,20-dione 4′-Carbomethoxybutyrate] |  |  | % Inhibition Estrogen Receptor (E^−6): 0%; % Inhibition Estrogen Receptor (E^−8): 0%
COc1c(Br)cc2c(c1Br)CCC1C2CCC2(C)C1CCC21CCC(C)(C)C(=O)O1 (centres unmarked) [EM-1385-CS] | 4 | 2 | 
C[C@]12CCC3c4ccc(O)cc4CCC3C1CC[C@@]21CCCC(=O)O1 (stereo partly drawn) [EM-919, 1,3,5(10)-estratrien-3-ol-17(R)-spiro-2′(6′-oxo)tetrahydropyran] |  |  | % Inhibition Estrogen Receptor *E^−5 (Table 4′, starred values, E^−5): 90* %; % Inhibition Estrogen Receptor *E^−7 (Table 4′, starred values, E^−7): 07* %
CCCC(=O)O[C@]1(C)C(=O)CCC2C3C=C(C)C4=CC(=O)CC[C@]4(C)C3CC[C@@]21C (some centres unmarked) [EM-1078] |  |  | % Inhibition Estrogen Receptor E^−6 (E^−6): 0%; % Inhibition Estrogen Receptor E^−8 (E^−8): 5%

SMILES | % Inhibition Estrogen Receptor E^−6 (Table 4′, E^−6) [%] | % Inhibition Estrogen Receptor E^−8 (Table 4′, E^−8) [%] | further results
CCCCN(C)C(=O)[C@@]1(OC(C)=O)CCC2C3C=C(C)C4=CC(=O)CC[C@]4(C)C3CC[C@@]21C (some centres unmarked) [EM-1165] |  |  | % Inhibition Estrogen Receptor (E^−6): 0%; % Inhibition Estrogen Receptor (E^−8): 0%
CC1(C)CCC2(CCC3C4CCc5c(cc(Cl)c(OS(C)(=O)=O)c5Cl)C4CCC32C)OC1=O (centres unmarked) [EM-1392-CS] | 0 | 0 | 
CC1(C)CC[C@@]2(CCC3C4CCc5cc(F)ccc5C4CC[C@@]32C)OC1=O (some centres unmarked) [EM-1157-CS] | 0 | 0 | 
C[C@]12CCC3c4cc([N+](=O)[O-])c(O)cc4CCC3C1CC[C@@]21CCCC(=O)O1 (stereo partly drawn) [EM-1124, 2-Nitro-1,3,5(10)-estraetriene-3-ol-17(R)-spiro-2′-(6′-oxo)tetrahydropyran] | 0 | 0 | 
CC12C=CC(=O)C=C1C=CC1C2CCC2(C)C(=O)C3(CCCCC3)CC12 (centres unmarked) [CS-204] |  |  | % Inhibition Estrogen Receptor E^−6 (E^−6): 0%; % Inhibition Estrogen Receptor E^−8 (E^−8): 0%
CN(C)C(=O)c1ccc2c(c1)CCC1C2CCC2(C)C1CCC21CCC(C)(C)C(=O)O1 (centres unmarked) [EM-1403] | 0 | 0 | 
CC1(C)CC[C@@]2(CCC3C4CCc5cc(C(=O)O)ccc5C4CC[C@@]32C)OC1=O (stereo partly drawn) [EM-1401, 3-Carboxy-1,3,5(10)-estratrien-17(R)-spiro-2′-(5′,5′-dimethyl-6′-oxo)tetrahydropyran] | 2 | 5 | 
CC1(C)CC[C@@]2(CCC3C4CCc5cc(C(N)=O)ccc5C4CCC32C)OC1=O (some centres unmarked) [EM-1404] | 0 | 0 | 
CC(=O)O[C@]1(C)C(=O)CCC2C3C=C(C)C4=CC(=O)C=C[C@]4(C)C3CC[C@@]21C (some centres unmarked) [CS-237] |  |  | % Inhibition Estrogen Receptor E^−6 (E^−6): 0%; % Inhibition Estrogen Receptor E^−8 (E^−8): 0%
COCCOc1cc2c(cc1C#N)C1CC[C@@]3(C)C(CC[C@@]34CCC(C)(C)C(=O)O4)C1CC2 (some centres unmarked) [EM-1396] | 2 | 3 | 
C[C@]12CCC(=O)C=C1C=C[C@@H]1[C@@H]2CC[C@]2(C)C(=O)C3(CC4CC4C3)C[C@@H]12 (some centres unmarked) [EM-1299, 4,6-Androstadien-3,17-dione-16-spirobicyclo[3′.1′.0′]-hexane] |  |  | % Inhibition Estrogen Receptor E^−6 (E^−6): 3%; % Inhibition Estrogen Receptor E^−8 (E^−8): 3%
CC1CCC2(CCC3C4CCc5cc(O)c([N+](=O)[O-])cc5C4CCC32C)OC1=O [EM-1131, 2-Nitro-1,3,5(10)-estratrien-3-ol-17(R)-spiro-2′-(5′-methyl-6′-oxo)tetrahydropyran] | 3 | 5 | 
CC1(C)CCC2(CCC3C4CCc5cc(OCCN6CCCCC6)ccc5C4CCC32C)OC1=O [EM-1390-CS, 3-(N-piperidyl-ethyl)-1,3,5(10)-estratrien-17(R)-spiro-2′-(5′,5′-dimethyl-6′-oxo)-tetrahydropyran] | 0 | 0 | 
CC1CCC2(CCC3C4CCc5cc(O)c([N+](=O)[O-])cc5C4CCC32C)OC1=O [EM-1126, 2-Nitro-1,3,5(10)-estratrien-3-ol-17(R)-spiro-2′-(5′-methyl-6′-oxo)tetrahydropyran] | 0 | 1 | 
CCC[C@@H]1CC2C3C=CC4=CC(=O)CC[C@]4(C)C3CC[C@]2(C)C1=O (some centres unmarked) [EM-1097] |  |  | % Inhibition Estrogen Receptor E^−6 (E^−6): 1%; % Inhibition Estrogen Receptor E^−8 (E^−8): 0%
COc1ccc2c(c1)C(=O)CC1C3CCC4(CCC(C)(C)C(=O)O4)C3(C)CCC21O (centres unmarked) [EM-1386] | 0 | 3 | 
CC(C)C[C@@H]1CC2C3C=CC4=CC(=O)CC[C@]4(C)C3CC[C@]2(C)C1=O (some centres unmarked) [EM-1273-CS] |  |  | % Inhibition Estrogen Receptor E^−6 (E^−6): 0%; % Inhibition Estrogen Receptor E^−8 (E^−8): 0%

Reference: patent US6541463B1, “Inhibitors of type 5 and type 3 17β-hydroxysteroid dehydrogenase and methods for their use” (Endorecherche, Inc., priority 1998, dated 2003)
